Common to all, as to assay type: in vivo
The test system of test [1] is PD-LID rat model. Description: Dyskinesia-like symptom (AIMs) score in PD-LID rat model.
For test [2], the system named is PD-LID rat model. The description is as above. To be noted: for total dyskinesia-like symptom (AIMs) score in 3 hours: levodopa 5 min later, vs solvent group. The method, then:
To make a PD-LID rat model, a mixture of levodopa methyl ester hydrochloride (6 mg/kg; Sigma-Aldrich) dissolved in saline and benserazide hydrochloride (15 mg/kg; Sigma-Aldrich) (hereinafter, also referred to as “levodopa containing solution”) was intraperitoneally administered once daily to 6-OHDA-lesioned rats. The levodopa containing solution was repeatedly administered for 3 weeks or longer to observe and evaluate the behavior. The behavior was observed and evaluated in a transparent acrylic cage for 1 minute every 20 minutes after 20 minutes from the intraperitoneal administration of the levodopa containing solution, up until after 3 hours from administration. […] The sum of the scores for Limb AIMs, Axial AIMs, and Orolingual AIMs in 3 hours was used as the total dyskinesia-like symptom (AIMs) score. Individuals with a total AIMs score of less than 10 were excluded from the test as not manifesting a dyskinesia-like symptom. The behavior was observed and evaluated before the drug evaluation date. The rats were assigned to each dosing group by using the 3 hour total dyskinesia-like symptom (AIMs) score, Locomotive behavior score, and rat body weight as indicators, which were used for evaluation of drugs. […]
After 4 hours from application, a levodopa containing solution was intraperitoneally administered to observe and evaluate the behavior. Individuals with 50% or more of the tape agent coming off during the test were excluded from analysis. […]
As in Example 2, a levodopa containing solution was repeated administered to 6-0HDA-lesioned rats for 3 weeks or longer to observe and evaluate the behavior. The behavior was observed and evaluated before the drug evaluation date. The rats were assigned to each dosing group by using the 3 hour dyskinesia-like symptom (AIMs) score, Locomotive behavior score, and rat body weight as indicators, which were used for evaluation of drugs. However, individuals with a total AIMs score of less than 10 were excluded from the test as lacking manifestation of a dyskinesia-like symptom. Individuals with a body weight deviating 10% or more from the mean body weight were also excluded from the test to minimize variation in the dosage for each individual. […]
After 4 hours, a levodopa containing solution was administered to observe and evaluate the behavior. […]
The prepared solution was used after injection into an ALZET® Osmotic Pump MODEL 2ML2 (4.53 μL/hour; DURECT) for releasing a drug solution at a stable rate for 2 weeks. […]
The behavior was observed and evaluated using the same method as Example 2. […] After 5 minutes, a levodopa containing solution was intraperitoneally administered, and the behavior was observed and evaluated. The results in the drawings are indicated in terms of mean value […] standard error. The test results were statistically analyzed by comparison with the solvent administration group by Steel test using the total dyskinesia-like symptom (AIMs) score in 3 hours and total dyskinesia-like symptom score in 100 to 180 minutes as parameters. * indicates p<0.05, meaning that there is a significant difference.
The behavior was observed and evaluated using the same method in Example 2. […] The test results were statistically analyzed by comparison with the solvent administration group by Steel test by using the total dyskinesia-like symptom (AIMs) score in 3 hours and total dyskinesia-like symptom score in 100 to 180 minutes as parameters.

Test [3] relates to rat Vogel conflict test model. Briefly: Anxiolytic action in rat Vogel conflict test model. The note with it: effect on PD-LID evaluated in 6-OHDA-lesioned rats. The method, then: The anxiolytic action was evaluated using a rat Vogel conflict test model, and the effect on PD-LID was evaluated in 6-0HDA-lesioned rats.
Test [4] has as its system PD-LID rat model. Description: ON score and ON time without dyskinesia in PD-LID rat model. The method, then: To make a PD-LID rat model, a mixture of levodopa methyl ester hydrochloride (6 mg/kg; Sigma-Aldrich) dissolved in saline and benserazide hydrochloride (15 mg/kg; Sigma-Aldrich) (hereinafter, also referred to as “levodopa containing solution”) was intraperitoneally administered once daily to 6-OHDA-lesioned rats. The levodopa containing solution was repeatedly administered for 3 weeks or longer to observe and evaluate the behavior. The behavior was observed and evaluated in a transparent acrylic cage for 1 minute every 20 minutes after 20 minutes from the intraperitoneal administration of the levodopa containing solution, up until after 3 hours from administration. […] Individuals with a total AIMs score of less than 10 were excluded from the test as not manifesting a dyskinesia-like symptom. The behavior was observed and evaluated before the drug evaluation date. […] For an indicator of dyskinesia behavior, the sum of the Limb AIMs, Axial AIMs, and Orolingual AIMs at each evaluation point was used as the AIMs score. For the rotational behavior (ON score), Locomotive behavior at each evaluation point was used as an indicator. […] For ON time without dyskinesia, the period during which the AIMs score is 0 and Locomotive behavior is 1 or greater at each evaluation point was added. Duration of action of levodopa without a dyskinesia symptom (ON time without dyskinesia) refers to the aggregate time with no dyskinesia during the antiparkinsonian action effective time, i.e., “ON-time”, and defined as the time during which the dyskinesia symptom (AIMs) score is 0 and the rotational behavior (Locomotive behavior) score is 1 or greater at each evaluation point after levodopa administration. […] After 5 minutes, a levodopa containing solution was intraperitoneally administered, and the behavior was observed and evaluated. The results in the drawings are indicated in terms of mean value±standard error. […] For evaluation of a tape agent, the abdominal regions of the rats were shaved prior to the evaluation date. […] After 4 hours from application, a levodopa containing solution was intraperitoneally administered to observe and evaluation the behavior. The results in the drawings are indicated in terms of mean value±standard error. Individuals with 50% or more of the tape agent coming off during the test were excluded from analysis.

Setting [5] is: continuous subcutaneous infusion 1.25 mg/kg/hour, vs solvent.
[6] abbreviates: oral 6.7 mg/kg as free form (10 mg/kg as citrate).
Setting [7] is: oral 67 mg/kg as free form (100 mg/kg as citrate).
[8] abbreviates: transdermal condition 1, 37 mg/kg as free form.
The mark [9] stands for this setting: transdermal condition 2 (stripping), 45 mg/kg as free form.

Structures are written as SMILES. Structures can show the parent of a compound that is named as a salt.

With `c1cnc(N2CCNCC2)nc1` [1-PP dihydrochloride, 1-(2-Pyrimidyl)piperazine], the “total dyskinesia-like symptom score in 100 to 180 minutes” value in the test with PD-LID rat model [1] (subcutaneous 10 or 30 mg/kg, vs solvent group) is “increasing trend in the total AIMs score, albeit not significant”. The “total dyskinesia-like symptom (AIMs) score in 3 hours” value with PD-LID rat model [2] (subcutaneous 10 mg/kg) and in the test with PD-LID rat model [2] (subcutaneous 30 mg/kg) was “significant change in the total AIMs score was not found” throughout.
Regarding `O=C1[C@@H]2[C@H]3CC[C@H](C3)[C@@H]2C(=O)N1CCCCN1CCN(c2ncccn2)CC1` [tandospirone, (1R,2S,3R,4S)—N-[4-{4-(pyrimidine-2-yl)piperadine-1-yl}butyl]-2,3-bicyclo[2.2.1]heptanedicarboximide], the “anxiolytic action compared with effect on PD-LID” value in test [3] is listed as “exerted at the same dosage”. Further, the “dyskinesia-like symptoms (total AIMs score in 3 hours)” value is recorded as “significant improvement” with PD-LID rat model [1] (setting [5]) and “dose-dependently improved dyskinesia-like symptoms” with PD-LID rat model [2] (continuous subcutaneous infusion 0.05, 0.25, 1.25 mg/kg/hour, levodopa 4 hours after pump implant, vs solvent). Also, the “(i) Degree of improvement in indicator of dyskinesia symptom (total AIMs score in 3 hours, solvent minus tandospirone group)” value in the test on PD-LID rat model [1] (setting [6]), in the test on PD-LID rat model [1] (oral 20 mg/kg as free form (30 mg/kg as citrate)) and with PD-LID rat model [1] (setting [7]) was “Ineffective” each time. Besides, the “(ii) Indicator of rebound symptom of dyskinesia (total dyskinesia-like symptom score in 100 to 180 minutes, solvent minus tandospirone group)” value in the test with PD-LID rat model [1] (setting [6]) is recorded as “No effect”; in the test with PD-LID rat model [1] (oral 20 mg/kg as free form (30 mg/kg as citrate), experiment printed as (FIG. 7)), −9.1; in the test with PD-LID rat model [1] (oral 20 mg/kg as free form (30 mg/kg as citrate), experiment printed as (FIGS. 8A-8B)) it was −8.5; in the test with PD-LID rat model [1] (setting [7]), −10.1. Further, the “(i) Degree of improvement in indicator of dyskinesia symptom (total AIMs score in 3 hours, placebo minus tandospirone group)” value in the test on PD-LID rat model [1] (setting [8]) stood at 17.7; in the test on PD-LID rat model [1] (setting [9]), 27.1. Further, the “(ii) Indicator of rebound symptom of dyskinesia (total dyskinesia-like symptom score in 100 to 180 minutes, placebo minus tandospirone group)” value with PD-LID rat model [1] (setting [8]) and in the test with PD-LID rat model [1] (setting [9]) was “No effect” throughout. Also, the “(iii) Duration of action of levodopa without dyskinesia symptom (ON time without dyskinesia)” value in the test on PD-LID rat model [4] (oral 6.7 mg/kg as free form (10 mg/kg as citrate), vs solvent group) is “Ineffective”; in the test with PD-LID rat model [4] (oral 20 mg/kg as free form (30 mg/kg as citrate), vs solvent group), “Ineffective”; in the test on PD-LID rat model [4] (transdermal condition 1 (no stripping), 37 mg/kg as free form, 180 min, prolongation vs placebo tape), 21.7 min; with PD-LID rat model [4] (transdermal condition 2 (stripping), 45 mg/kg as free form, 180 min, prolongation vs placebo tape), 77.8 min. For the same compound, in the test with PD-LID rat model [2] (setting [5]), the “total dyskinesia-like symptom score in 100 to 180 minutes” value is on record as “significant improvement”.

For the origin of these results see patent US11628169B2, “Therapeutic drug for motor complications in Parkinson's disease” (Sumitomo Pharma Co., Ltd., priority 2020, dated 2023).
